Bounds are passed on as bounds.

Assay [1] deals with absorption of sodium from the intestinal lumen. Briefly: Inhibition of intestinal sodium absorption in rats. Type of assay: in vivo, Sprague Dawley rats. As to conditions: 13-hours post-dose; for response vs control in vivo at 0.03 mg/kg: oral gavage 0.03 mg/kg; for response vs control in vivo at 0.1 mg/kg: oral gavage 0.1 mg/kg; for FFS (1-5): rats, group median fecal form score, 1 normal pellet to 5 liquid fecal streams; for response vs control in vivo at 0.3 mg/kg: oral gavage 0.3 mg/kg. The protocol: Urinary sodium excretion and fecal form were measured to assess the ability of selected example compounds to inhibit the absorption of sodium from the intestinal lumen. Eight-week old, male, Sprague Dawley rats were purchased from Envigo (Livermore, Calif.), were housed 2 per cage and acclimated for at least 48 hours before study initiation. Animals were fed. Harlan Teklad Global TD.160470 rodent chow (Madison, Wis.), standard laboratory rodent chow Harlan Teklad Global 2018 with the addition of 0.4% inorganic phosphorous. Animals had ad libitum access to food and water for the duration of the study and were maintained in a temperature and humidity controlled room on a standard light/dark cycle of 6 AM to 6 PM. On the day of study initiation, rats (n=5/group) were dosed by oral gavage with test compound or vehicle (3 mM HCl, 0.01% Tween80) at a dose volume of […]. Immediately after dose administration animals were placed in individual metabolic cages. At 13-hours post-dose, urine samples were collected and fecal form was assessed. In addition, the weight of food consumed over the 13-hour period was measured and recorded. Fecal forms were scored according to a common scale associated with increasing fecal water to the wettest observation in the cage's collection funnel (1, normal pellet; 2, pellet adhering to sides of collection funnel due to moisture; 3, loss of normal pellet shape; 4, complete loss of shape with a blotting pattern; 5, liquid fecal streams evident). Fecal form score (FFS) was calculated for each group as the median of each individual rat's FFS within the group and reported in Table 7. Fecal samples were dried using a lyophilizer for at least 3 days, following which dry weight was recorded and fecal fluid content was calculated based on the difference between the wet and dry stool weights. Fecal fluid content was calculated as a change from the vehicle group mean. For urine samples, the volumes were determined gravimetrically. Urine samples were analyzed on an ion chromatography system (Thermo Fisher ICS-3000 or ICS-5000+) coupled with conductivity detectors. Chromatographic separation of cations was performed using an IonPac CS12A (Thermo Fisher) 2×250 mm analytical column with an isocratic elution using 25 mM methanesulfonic acid. Concentrations were interpolated from a standard curve (prepared in 10 mM HCl) for sodium based on retention time and peak area. Thirteen-s-hour urinary sodium excretion (mg/13-hours) was calculated by multiplying urinary sodium concentration by 13-hour urine volume. The urinary sodium excretion of compound treatment was normalized to dietary sodium intake and expressed as a percentage of the vehicle mean.

Assay [2] relates to gastrointestinal transit. The experiment in a line: Restoration of gastrointestinal motility in opioid induced constipation (loperamide). Type of assay: in vivo, mice. The conditions noted are these: loperamide s.c., Evans Blue small intestinal transit 30 minutes. On the procedure: Approximately eight-week old, female, CD1 […] are purchased from Envigo (Livermore, Calif.), are housed 4 per cage and acclimated for at least 48 hours before study initiation. Animals are fed standard laboratory rodent chow Harlan Teklad Global 2018 (Madison, Wis.). Animals have ad libitum access to food and water for the duration of the acclimation period and are maintained in a temperature and humidity controlled room on a standard light/dark cycle of 6 AM to 6 PM. Following an overnight fast, with free access to water, animals are dosed by oral gavage with varying doses of test compound or vehicle (3 mM HCl, 0.01% Tween80), at a dose volume of 5 mL/kg. […] For an individual animal, the length travels by the Evans Blue dye front is divided by the length of the whole small intestine, measured from the pylorus to the cecum, and multiplied by 100, to provide the distance of the small intestine travelled by the dye as a percentage.

Where [3] appears, read: Rattus norvegicus, Sprague Dawley rats, read-out: Urinary Na (% of Vehicle, out/in).

Take `N#Cc1cc(Cl)cc2c1C[C@H](N1CCNCC1)[C@H]2Oc1ccc(S(=O)(=O)NCCOCCOCCNC(=O)NCCCCNC(=O)NCCOCCOCCNS(=O)(=O)c2ccc(O[C@H]3c4cc(Cl)cc(C#N)c4C[C@@H]3N3CCNCC3)cc2)cc1` [Example 41, 3-[2-(2-[2-[(4-[[(1S,2S)-6-Chloro-4-cyano-2-(piperazin-1-yl)-2,3-dihydro-1H-inden-1-yl]oxy]benzene)sulfonamido]ethoxy]ethoxy)ethyl]-1-[4-([[2-(2-[2-[(4-[[(1S,2S)-6-chloro-4-cyano-2-(piperazin-1-yl)-2,3-dihydro-1H-inden-1-yl]oxy]benzene)sulfonamido]ethoxy]ethoxy)ethyl]carbamoyl]amino)butyl]urea; bis(trifluoroacetic acid)]: the response vs control in vivo at 0.003 mg/kg in assay [1] (Rattus norvegicus, Sprague Dawley rats, oral gavage 0.003 mg/kg, read-out: Urinary Na (% of Vehicle, out/in)) was greater than 70%. In addition, the response vs control in vivo at 0.01 mg/kg in assay [1] (Rattus norvegicus, Sprague Dawley rats, oral gavage 0.01 mg/kg, read-out: Urinary Na (% of Vehicle, out/in)) is greater than 70%. Also, in assay [1] (setting [3]), the response vs control in vivo at 0.03 mg/kg fell in the range of 40 to 70%. Further, in assay [1] (setting [3]), the response vs control in vivo at 0.1 mg/kg is less than 40%. Further, the “FFS (1-5)” value in assay [1] (0.003 mg/kg) was determined as 2; in assay [1] (0.01 mg/kg) it was 2; in assay [1] (0.03 mg/kg) it was 2; in assay [1] (0.1 mg/kg), 5. Also, in assay [2] (oral gavage 15 mg/kg), the “% Restoration of Transit” value was “A (<20%)”.
Regarding `N#Cc1cc(Cl)cc2c1C[C@H](N1CCNCC1)[C@H]2Oc1ccc(S(=O)(=O)NCCOCCOCCNC(=O)NCCCCNC(=O)NCCOCCOCCNS(=O)(=O)c2ccc(O[C@H]3c4cc(Cl)cc(C#N)c4C[C@@H]3N3CCNCC3)c(F)c2)cc1F` [Example 43, 3-[2-(2-[2-[(4-[[(1S,2S)-6-Chloro-4-cyano-2-(piperazin-1-yl)-2,3-dihydro-1H-inden-1-yl]oxy]-3-fluorobenzene)sulfonamido]ethoxy]ethoxy)ethyl]-1-[4-([[2-(2-[2-[(4-[[(1S,2S)-6-chloro-4-cyano-2-(piperazin-1-yl)-2,3-dihydro-1H-inden-1-yl]oxy]-3-fluorobenzene)sulfonamido]ethoxy]ethoxy)ethyl]carbamoyl]amino)butyl]urea; bis(trifluoroacetic acid)], the “% Restoration of Transit” value in assay [2] (oral gavage 1.5 mg/kg) is “B (20-40%)”; in assay [2] (oral gavage 5 mg/kg) it was “A (<20%)”; in assay [2] (oral gavage 15 mg/kg), “A (<20%)”.
Take `N#Cc1cc(Cl)cc2c1C[C@H](N1CCNCC1)[C@H]2Oc1ccc(S(=O)(=O)N[C@H]2CCN(CCOCCNC(=O)NCCCCNC(=O)NCCOCCN3CC[C@H](NS(=O)(=O)c4ccc(O[C@H]5c6cc(Cl)cc(C#N)c6C[C@@H]5N5CCNCC5)cc4)C3)C2)cc1` [Example 107, 4-([(1S,2S)-6-Chloro-4-cyano-2-(piperazin-1-yl)-2,3-dihydro-1H-inden-1-yl]oxy)-N—[(S)-1-(20-[(S)-3-([4-([(1S,2S)-6-chloro-4-cyano-2-(piperazin-1-yl)-2,3-dihydro-1H-inden-1-yl]oxy)phenyl]sulfonamido)pyrrolidin-1-yl]-7,14-dioxo-3,18-dioxa-6,8,13,15-tetraazaicosyl)pyrrolidin-3-yl]benzenesulfonamide; tetra(trifluoroacetate)]: in assay [1] (setting [3]), the response vs control in vivo at 0.03 mg/kg was 40 to 70%, the response vs control in vivo at 0.1 mg/kg lay in the range of 40 to 70% and the response vs control in vivo at 0.3 mg/kg was less than 40%. The “FFS (1-5)” value in assay [1] (0.03 mg/kg) stood at 3. The “FFS (1-5)” value in assay [1] (0.1 mg/kg) worked out at 3. Further, the “FFS (1-5)” value in assay [1] (0.3 mg/kg) amounted to 3.
Consider `N#Cc1cc(Cl)cc2c1C[C@H](N1CCNCC1)[C@H]2Oc1ccc(S(=O)(=O)N2CCC(NC(=O)CCCNC(=O)NCCCCNC(=O)NCCCC(=O)NC3CCN(S(=O)(=O)c4ccc(O[C@H]5c6cc(Cl)cc(C#N)c6C[C@@H]5N5CCNCC5)cc4)CC3)CC2)cc1` [Example 120, N^1,N^18-Bis(1-([4-([(1S,2S)-6-chloro-4-cyano-2-(piperazin-1-yl)-2,3-dihydro-1H-inden-1-yl]oxy)phenyl]sulfonyl)piperidin-4-yl)-6,13-dioxo-5,7,12,14-tetraazaoctadecanediamide], for which, in assay [1] (setting [3]), the response vs control in vivo at 0.03 mg/kg was greater than 70%, the response vs control in vivo at 0.1 mg/kg lay within 40 to 70% and the response vs control in vivo at 0.3 mg/kg is less than 40%. Besides, the “FFS (1-5)” value in assay [1] (0.03 mg/kg) was determined as 2. In addition, the “FFS (1-5)” value in assay [1] (0.1 mg/kg) is reported as 3. Further, the “FFS (1-5)” value in assay [1] (0.3 mg/kg) worked out at 4.
Turning to `CN(C)[C@H]1CCCN([C@H]2Cc3c(C#N)cc(Cl)cc3[C@@H]2Oc2ccc(S(=O)(=O)NCCOCCOCCNC(=O)NCCCCNC(=O)NCCOCCOCCNS(=O)(=O)c3ccc(O[C@H]4c5cc(Cl)cc(C#N)c5C[C@@H]4N4CCC[C@H](N(C)C)C4)cc3)cc2)C1` [Example 122, 4-([(1S,2S)-6-Chloro-4-cyano-2-[(S)-3-(dimethylamino)piperidin-1-yl]-2,3-dihydro-1H-inden-1-yl]oxy)-N-[26-([4-([(1S,2S)-6-chloro-4-cyano-2-[(S)-3-(dimethylamino)piperidin-1-yl]-2,3-dihydro-1H-inden-1-yl]oxy)phenyl]sulfonamido)-10,17-dioxo-3,6,21,24-tetraoxa-9,11,16,18-tetraazahexacosyl]benzenesulfonamide], in assay [1] (setting [3]), the response vs control in vivo at 0.03 mg/kg was greater than 70%, the response vs control in vivo at 0.1 mg/kg was greater than 70% and the response vs control in vivo at 0.3 mg/kg fell in the range of 40 to 70%. The “FFS (1-5)” value in assay [1] (0.03 mg/kg) was found to be 2. Moreover, the “FFS (1-5)” value in assay [1] (0.1 mg/kg) is 2. Moreover, the “FFS (1-5)” value in assay [1] (0.3 mg/kg) was determined as 3.
Turning to `C[C@@H]1CN([C@H]2Cc3c(C#N)cc(Cl)cc3[C@@H]2Oc2ccc(S(=O)(=O)N[C@@H]3CCN(CCOCCNC(=O)NCCCCNC(=O)NCCOCCN4CC[C@@H](NS(=O)(=O)c5ccc(O[C@H]6c7cc(Cl)cc(C#N)c7C[C@@H]6N6CCN[C@H](C)C6)cc5)C4)C3)cc2)CCN1` [Example 133, 4-([(1S,2S)-6-Chloro-4-cyano-2-[(R)-3-methylpiperazin-1-yl]-2,3-dihydro-1H-inden-1-yl]oxy)-N—[(R)-1-(20-[(R)-3-([4-([(1S,2S)-6-chloro-4-cyano-2-[(R)-3-methylpiperazin-1-yl]-2,3-dihydro-1H-inden-1-yl]oxy)phenyl]sulfonamido)pyrrolidin-1-yl]-7,14-dioxo-3,18-dioxa-6,8,13,15-tetraazaicosyl)pyrrolidin-3-yl]benzenesulfonamide; bis(trifluoroacetic acid)], in assay [1] (setting [3]), the response vs control in vivo at 0.03 mg/kg was greater than 70%, the response vs control in vivo at 0.1 mg/kg is less than 40% and the response vs control in vivo at 0.3 mg/kg is less than 40%. Moreover, the “FFS (1-5)” value in assay [1] (0.03 mg/kg) came to 3. In assay [1] (0.1 mg/kg), the “FFS (1-5)” value came to 3. The “FFS (1-5)” value in assay [1] (0.3 mg/kg) worked out at 3.
Consider `N#Cc1cc(Cl)cc2c1C[C@H](N1CCNCC1)[C@H]2Oc1ccc(S(=O)(=O)N[C@H]2CCN(C(=O)CCCNC(=O)NCCCCNC(=O)NCCCC(=O)N3CC[C@H](NS(=O)(=O)c4ccc(O[C@H]5c6cc(Cl)cc(C#N)c6C[C@@H]5N5CCNCC5)cc4)C3)C2)cc1` [Example 143, 4-([(1S,2S)-6-Chloro-4-cyano-2-(piperazin-1-yl)-2,3-dihydro-1H-inden-1-yl]oxy)-N—[(S)-1-(18-[(S)-3-([4-([(1S,2S)-6-chloro-4-cyano-2-(piperazin-1-yl)-2,3-dihydro-1H-inden-1-yl]oxy)phenyl]sulfonamido)pyrrolidin-1-yl]-6,13,18-trioxo-5,7,12,14-tetraazaoctadecanoyl)pyrrolidin-3-yl]benzenesulfonamide], for which, in assay [1] (setting [3]), the response vs control in vivo at 0.03 mg/kg is 40 to 70%, the response vs control in vivo at 0.1 mg/kg was less than 40% and the response vs control in vivo at 0.3 mg/kg is less than 40%. The “FFS (1-5)” value in assay [1] (0.03 mg/kg) turned out to be 3. Moreover, the “FFS (1-5)” value in assay [1] (0.1 mg/kg) turned out to be 3. In assay [1] (0.3 mg/kg), the “FFS (1-5)” value was 4.

(Values after patent US11242337B2, “Compounds useful for treating gastrointestinal tract disorders” (Ardelyx, Inc., priority 2017, dated 2022).)
